This passage reports AC50, Emax and EC50 results from patent US10138232B2, “Naphthyridinedione derivatives” (NOVARTIS AG, priority 2014, dated 2018).

In this assay the test system is CFTR-Y122X (GFP-CFTR-Y122X-Renilla construct) in Hek293 cell lines. Nature of the assay: CFTR-Y122X assay (dual reporter readthrough, Renilla luminescence). In kind it is cell-based. The following applies: Homo sapiens; for AC50: nonsense mutation suppression in the CFTR-Y122X assay; for AC50 / Emax: compounds incubated 24 h, tested up to 100 μM; for Emax: nonsense mutation suppression, 100% activity = 14 mM paromomycin, read-out: Amax. The text has this: In particular, compounds of formula (I), (I′), (Ia), (Ia′) or (Ib) I act as nonsense mutation suppressors on frequent PTCs, e.g. on Y122X in the mRNA of the cystic fibrosis conductance regulator protein (CFTR). This can be determined in vitro, for example, using cell lines expressing GFP-CFTR-Y122X-Renilla constructs as described herein.
Activity of compounds of the present invention was examined in recombinant, dual reporter isogenic Hek293 cell lines (“CFTR-Y122X assay”). The engineered reporter constructs contained the 18 bp sequence strech corresponding to a common Y122X PTC mutation in CFTR class I mutant patients (see Sermet-Gaudelus, BMC Medicine, 2007, 5(5)). Instead of a tyrosine (Y) in position 122 of the CFTR protein a TGA stop codon interrupts the open reading frame (Y122X) of the corresponding mRNA. This TGA stop codon triplet (followed by the pyrimidine base cytosine) is permissive to aminoglycoside mediated translational readthrough which served as positive control for high throughput screening. A corresponding TAA stop codon variant and a wildtype non mutated construct was used for confirmation and counter screening. The CFTR sequence was sandwiched between an eGFP reporter, and a triple myc tag sequence fused to a full length Renilla reporter. All sequences, including an intron containing one positioned pre-eGFP (b-globin intron) were cloned in frame. The corresponding expression constructs were stably expressed in the isogenic HEK-R4 cell host (Invitrogen Incorp.) and selected by blasticidin resistance. The isogenic integration of the construct minimizes gene dose effects and improves assay reproducibility. Stably integrated single cell derived clones were selected and characterized for aminoglycoside mediated readthrough. […] Readthrough of Y122X accumulates an intracellular localized fusion protein approximately 65.5 kDa in size as controlled by western blot analysis and immunofluorescence using an anti-renilla antibody. The eGFP reporter pre-PTC mutation serves as visual control for genetic stability of the screening clones and minimizes protein degradation of small fusion protein amounts. In the assay, compound concentration was 10 μM. In miniaturized 1536 well format 2000 cells were dispensed in 4 μl/well and incubated for 24 h at 37° C., 5% CO2. 40 nl compounds were placed on the cells with control wells containing 1 ul Paramomycin and 14.4 mM final concentration. Compounds were incubated for 24 h. Renilla Glo substrate (2.5 ul) was added and plates were centrifuged and processed for luminescence measurement using various readers. Activity calculation was done using the equation: A1(%)=100*(S−NC)/(AC−NC) where AC, NC and S correspond to active controls (injection of Stimulation buffer=100% stimulation), neutral controls (buffer injection which Iloprost EC10) and screening samples (S). NC corresponds to 0% activity whereas AC is 100% activity (14 mM paromomycin). False positive artefacts were removed in confirmation and validation screening using the same assay format followed by counterscreening using the respective wildtype construct (w/o PTC mutation) cell model. Compounds were tested up to 100 μM compound concentration.

pEC50: −log10 of the molar value.

A word on the AC50: it is the concentration at which the activity in the assay is half-maximal. A high value points to weaker potency. For `O=c1c2ccccc2[nH]c2cc(C3CCC3)n(-c3ccccn3)c(=O)c12` [Example 2.5, 3-cyclobutyl-2-(pyridin-2-yl)benzo[b][1,6]naphthyridine-1,10(2H,5H)-dione], half-maximal activity (AC50) was put at 2.7 µM and the Emax was found to be 217%.

Regarding `Cn1c2ccccc2c(=O)c2c(=O)n(-c3ccccn3)c(C3CCC3)cc21` [Example 2.6, 3-cyclobutyl-5-methyl-2-(pyridin-2-yl)benzo[b][1,6]naphthyridine-1,10(2H,5H)-dione], the half-maximal activity concentration (AC50) came to 3.3 µM and the Emax worked out at 232%.

In the case of `O=c1c2ccccc2[nH]c2cc(C3CCC3)n(N3CCCC3)c(=O)c12` [Example 2.7, 3-cyclobutyl-2-(pyrrolidin-1-yl)benzo[b][1,6]naphthyridine-1,10(2H,5H)-dione], half-maximal activity (AC50) was put at 0.7 µM and the Emax came to 197%.

As to `Cn1c2ccccc2c(=O)c2c(=O)n(N3CCCC3)c(C3CCC3)cc21` [Example 2.8, 3-cyclobutyl-5-methyl-2-(pyrrolidin-1-yl)benzo[b][1,6]naphthyridine-1,10(2H,5H)-dione], the activity was half-maximal at 6.1 µM (AC50) and the Emax came out at 188%.

As to `CC(C)c1cc2[nH]c3ccccc3c(=O)c2c(=O)n1-c1ccccn1` [Example 2.9, 3-isopropyl-2-(pyridin-2-yl)benzo[b][1,6]naphthyridine-1,10(2H,5H)-dione], the AC50 came to 4.2 µM and the Emax came out at 198%.

`CC(C)c1cc2c(c(=O)c3ccccc3n2C)c(=O)n1-c1ccccn1` [Example 2.10, 3-isopropyl-5-methyl-2-(pyridin-2-yl)benzo[b][1,6]naphthyridine-1,10(2H,5H)-dione]: the half-maximal activity concentration (AC50) was determined as 10 µM and the Emax turned out to be 177%.

`CC(C)c1cc2[nH]c3ccccc3c(=O)c2c(=O)n1N1CCCC1` [Example 2.11, 3-isopropyl-2-(pyrrolidin-1-yl)benzo[b][1,6]naphthyridine-1,10(2H,5H)-dione] displayed a concentration at half-maximal activity (AC50) of 0.9 µM.

Regarding `CC(C)c1cc2c(c(=O)c3ccccc3n2C)c(=O)n1N1CCCC1` [Example 2.12, 3-isopropyl-5-methyl-2-(pyrrolidin-1-yl)benzo[b][1,6]naphthyridine-1,10(2H,5H)-dione], the AC50 was determined as 1.7 µM and the Emax was determined as 178%.

Consider `CC(C)c1cc2[nH]c3ccccc3c(=O)c2c(=O)n1N1CCCCC1` [Example 2.13, 3-isopropyl-2-(piperidin-1-yl)benzo[b][1,6]naphthyridine-1,10(2H,5H)-dione], for which half-maximal activity (AC50) was put at 1.8 µM and the Emax worked out at 265%.

For the compound `CC(C)c1cc2c(c(=O)c3ccccc3n2C)c(=O)n1N1CCCCC1` [Example 2.14, 3-isopropyl-5-methyl-2-(piperidin-1-yl)benzo[b][1,6]naphthyridine-1,10(2H,5H)-dione], half-maximal activity (AC50) was put at 1.7 µM and the Emax was determined as 271%.

In the case of `CC(C)c1cc2[nH]c3sccc3c(=O)c2c(=O)n1C1CCCC1` [Example 2.15, 6-cyclopentyl-7-isopropylthieno[2,3-b][1,6]naphthyridine-4,5(6H,9H)-dione], the Emax was 124%.

As for `CC(C)c1cc2c(c(=O)c3ccsc3n2C)c(=O)n1C1CCCC1` [Example 2.16, 6-cyclopentyl-7-isopropyl-9-methylthieno[2,3-b][1,6]naphthyridine-4,5(6H,9H)-dione], the activity was half-maximal at 1.2 µM (AC50) and the Emax was 279%.

Take `CC(C)c1cc2[nH]c3ccccc3c(=O)c2c(=O)n1-n1cccc1` [Example 2.17, 3-isopropyl-2-(1H-pyrrol-1-yl)benzo[b][1,6]naphthyridine-1,10(2H,5H)-dione]: the AC50 was determined as 9 µM and the Emax turned out to be 237%.

For the compound `CC(C)c1cc2c(c(=O)c3ccccc3n2C)c(=O)n1-n1cccc1` [Example 2.18, 3-isopropyl-5-methyl-2-(1H-pyrrol-1-yl)benzo[b][1,6]naphthyridine-1,10(2H,5H)-dione], the activity was half-maximal at 17.6 µM (AC50) and the Emax amounted to 75%.

In the case of `CC(C)c1c(Cl)c2[nH]c3ccccc3c(=O)c2c(=O)n1-c1ccccc1` [Example 3.1, 4-chloro-3-isopropyl-2-phenylbenzo[b][1,6]naphthyridine-1,10(2H,5H)-dione], the activity was half-maximal at 3.2 µM (AC50) and the Emax amounted to 211%.

As for `CC(C)c1c(Cl)c2c(c(=O)c3ccccc3n2C)c(=O)n1-c1ccccc1` [Example 3.2, 4-chloro-3-isopropyl-5-methyl-2-phenylbenzo[b][1,6]naphthyridine-1,10(2H,5H)-dione], the half-maximal activity concentration (AC50) was determined as 17.2 µM and the Emax came to 220%.

As to `CC(C)c1c(Br)c2c(c(=O)c3ccccc3n2C)c(=O)n1-c1ccccc1` [Example 3.3, 4-bromo-3-isopropyl-5-methyl-2-phenylbenzo[b][1,6]naphthyridine-1,10(2H,5H)-dione], the AC50 was determined as 18.8 µM and the Emax was 122%.

As a reminder, the pEC50 is the negative decadic logarithm of the EC50, by convention in mol/L. Consider `NC[C@@H]1O[C@H](O[C@H]2[C@@H](O)[C@H](O[C@@H]3[C@@H](O)[C@H](N)C[C@H](N)[C@H]3O[C@H]3O[C@H](CO)[C@@H](O)[C@H](O)[C@H]3N)O[C@@H]2CO)[C@H](N)[C@@H](O)[C@@H]1O` [paromomycin, reference compound], for which the pEC50 (clone pursued for HTS assay development, read-out: EC50 (response of selected clone, aminoglycoside mediated readthrough)) is 2.82.
